In patent publication US20180092358A1, “HERBICIDAL MIXTURES” (Syngenta Participations AG, priority 2015, published 2018):

Tests used:
Assay type in all cases: in vivo
[1] = tested on: Amaranthus retroflexus; assay: Post-emergence herbicidal activity (glasshouse); conditions: application post-emergence, 1000 g/Ha, evaluated after 13 days, scale 0-5
Procedure: (§1) Seeds of a variety of test species were sown in standard soil in pots. After 8 days cultivation (post-emergence) under controlled conditions in a glasshouse (at 24/16° C., day/night; 14 hours light; 65% humidity), the plants were sprayed with an aqueous spray solution derived from the formulation of the technical active ingredient in acetone/water (50:50) solution containing 0.5% Tween 20 (polyoxyethelyene sorbitan monolaurate, CAS RN 9005-64-5). The test plants were then grown in a glasshouse under controlled conditions (at 24/16° C., day/night; 14 hours light; 65% humidity) and watered twice daily. After 13 days, the test was evaluated (5=total damage to plant; 0=no damage to plant).

[2] = tested on: Abutilon theophrasti; assay: Post-emergence herbicidal activity (glasshouse); conditions: application post-emergence, 1000 g/Ha, evaluated after 13 days, scale 0-5
Procedure: as §1

[3] = tested on: Echinochloa crus-galli; assay: Post-emergence herbicidal activity (glasshouse); conditions: application post-emergence, 1000 g/Ha, evaluated after 13 days, scale 0-5
Procedure: as §1

[4] = tested on: Setaria faberi; assay: Post-emergence herbicidal activity (glasshouse); conditions: application post-emergence, 1000 g/Ha, evaluated after 13 days, scale 0-5
Procedure: as §1

[5] = tested on: Zea mays; assay: Post-emergence herbicidal activity (glasshouse); conditions: application post-emergence, 1000 g/Ha, evaluated after 13 days, scale 0-5
Procedure: as §1

[6] = tested on: Amaranthus retroflexus; assay: Pre-emergence herbicidal activity (glasshouse); conditions: application pre-emergence, 1000 g/Ha, evaluated after 13 days, scale 0-5
Procedure: as §1, with “After” for “After 8 days”, “for one day (pre-emergence)” for “(post-emergence)”

[7] = tested on: Abutilon theophrasti; assay: Pre-emergence herbicidal activity (glasshouse); conditions: application pre-emergence, 1000 g/Ha, evaluated after 13 days, scale 0-5
Procedure: as §1, with “After” for “After 8 days”, “for one day (pre-emergence)” for “(post-emergence)”

[8] = tested on: Echinochloa crus-galli; assay: Pre-emergence herbicidal activity (glasshouse); conditions: application pre-emergence, 1000 g/Ha, evaluated after 13 days, scale 0-5
Procedure: as §1, with “After” for “After 8 days”, “for one day (pre-emergence)” for “(post-emergence)”

[9] = tested on: Setaria faberi; assay: Pre-emergence herbicidal activity (glasshouse); conditions: application pre-emergence, 1000 g/Ha, evaluated after 13 days, scale 0-5
Procedure: as §1, with “After” for “After 8 days”, “for one day (pre-emergence)” for “(post-emergence)”

[10] = tested on: Zea mays; assay: Pre-emergence herbicidal activity (glasshouse); conditions: application pre-emergence, 1000 g/Ha, evaluated after 13 days, scale 0-5
Procedure: as §1, with “After” for “After 8 days”, “for one day (pre-emergence)” for “(post-emergence)”

[11] = tested on: Alopecurus myosuroides; assay: Post-emergence herbicidal activity (glasshouse); conditions: application post-emergence, 1000 g/Ha, evaluated after 13 days, scale 0-5
Procedure: as §1

[12] = tested on: Alopecurus myosuroides; assay: Pre-emergence herbicidal activity (glasshouse); conditions: application pre-emergence, 1000 g/Ha, evaluated after 13 days, scale 0-5
Procedure: as §1, with “After” for “After 8 days”, “for one day (pre-emergence)” for “(post-emergence)”

SMILES: CCO[C@@H]1C(O)N(c2cc(C(C)(C)C)on2)C(=O)N1C (single isomer, unassigned) [Compound 1.6]
- damage to plant score, AMARE [1]: 5
- damage to plant score, ABUTH [2]: 5
- damage to plant score, ECHCG [3]: 5
- damage to plant score, SETFA [4]: 5
- damage to plant score, ZEAMX [5]: 4
- damage to plant score, AMARE [6]: 5
- damage to plant score, ABUTH [7]: 5
- damage to plant score, ECHCG [8]: 4
- damage to plant score, SETFA [9]: 1
- damage to plant score, ZEAMX [10]: 2

SMILES: CON1C(=O)N(c2cc(C(F)(F)F)ccn2)C(O)C1C (stereo not shown) [Compound 1.1, 4-hydroxy-1-methoxy-5-methyl-3-[4-(trifluoromethyl)-2-pyridyl]imidazolidin-2-one]
- damage to plant score, AMARE [1]: 5
- damage to plant score, ABUTH [2]: 5
- damage to plant score, ALOMY [11]: 5
- damage to plant score, ECHCG [3]: 5
- damage to plant score, SETFA [4]: 5
- damage to plant score, ZEAMX [5]: 2
- damage to plant score, AMARE [6]: 5
- damage to plant score, ABUTH [7]: 5
- damage to plant score, ALOMY [12]: 4
- damage to plant score, ECHCG [8]: 4
- damage to plant score, SETFA [9]: 5
- damage to plant score, ZEAMX [10]: 2

SMILES: CC1C(O)N(c2cc(C(F)(F)F)ccn2)C(=O)N1C (stereo not shown) [Compound 1.2, 4-hydroxy-1,5-dimethyl-3-[4-(trifluoromethyl)-2-pyridyl]imidazolidin-2-one]
- damage to plant score, AMARE [1]: 5
- damage to plant score, ABUTH [2]: 5
- damage to plant score, ALOMY [11]: 5
- damage to plant score, ECHCG [3]: 5
- damage to plant score, SETFA [4]: 5
- damage to plant score, ZEAMX [5]: 4
- damage to plant score, AMARE [6]: 5
- damage to plant score, ABUTH [7]: 5
- damage to plant score, ALOMY [12]: 4
- damage to plant score, ECHCG [8]: 4
- damage to plant score, SETFA [9]: 5
- damage to plant score, ZEAMX [10]: 3

SMILES: CCOC1C(O)N(c2cc(C(F)(F)F)ccn2)C(=O)N1C (stereo not shown) [Compound 1.3, 5-ethoxy-4-hydroxy-1-methyl-3-[4-(trifluoromethyl)-2-pyridyl]imidazolidin-2-one]
- damage to plant score, AMARE [1]: 5
- damage to plant score, ABUTH [2]: 5
- damage to plant score, ALOMY [11]: 5
- damage to plant score, ECHCG [3]: 5
- damage to plant score, SETFA [4]: 5
- damage to plant score, ZEAMX [5]: 4
- damage to plant score, AMARE [6]: 5
- damage to plant score, ABUTH [7]: 5
- damage to plant score, ALOMY [12]: 4
- damage to plant score, ECHCG [8]: 5
- damage to plant score, SETFA [9]: 5
- damage to plant score, ZEAMX [10]: 3

SMILES: CN1CC(O)N(c2cc(C(F)(F)F)ccn2)C1=O (stereo not shown) [Compound 1.4, 4-hydroxy-1-methyl-3-[4-(trifluoromethyl)-2-pyridyl]imidazolidin-2-one]
- damage to plant score, AMARE [1]: 5
- damage to plant score, ABUTH [2]: 5
- damage to plant score, ALOMY [11]: 5
- damage to plant score, ECHCG [3]: 5
- damage to plant score, SETFA [4]: 5
- damage to plant score, ZEAMX [5]: 5
- damage to plant score, AMARE [6]: 5
- damage to plant score, ABUTH [7]: 5
- damage to plant score, ALOMY [12]: 4
- damage to plant score, ECHCG [8]: 5
- damage to plant score, SETFA [9]: 4
- damage to plant score, ZEAMX [10]: 3

SMILES: CC1C(O)N(c2cc(C(F)(F)F)n(C)n2)C(=O)N1C (stereo not shown) [Compound 1.5, 4-hydroxy-1,5-dimethyl-3-[1-methyl-5-(trifluoromethyl)pyrazol-3-yl]imidazolidin-2-one]
- damage to plant score, AMARE [1]: 5
- damage to plant score, ABUTH [2]: 5
- damage to plant score, ALOMY [11]: 5
- damage to plant score, ECHCG [3]: 5
- damage to plant score, SETFA [4]: 5
- damage to plant score, ZEAMX [5]: 4
- damage to plant score, AMARE [6]: 5
- damage to plant score, ABUTH [7]: 5
- damage to plant score, ALOMY [12]: 4
- damage to plant score, ECHCG [8]: 4
- damage to plant score, SETFA [9]: 4
- damage to plant score, ZEAMX [10]: 4
